Assay results from US20250025488A1, “NUCLEIC ACIDS FOR INHIBITING EXPRESSION OF TMPRSS6 AND IRON CHELATORS” (SILENCE THERAPEUTICS GMBH, priority 2018, published 2025).

Test system: HFE−/− mice
Assay: Liver iron concentrations, TMPRSS6 siRNA with or without Deferiprone, HFE−/− mice
Format: in vivo, mouse
Conditions: 3 mg/kg siRNA conjugate s.c. Day 1 or Day 1 and 22, Deferiprone 0.5 mg/ml in drinking water, Day 43
Procedure: Three months old C57BL6/J congenic female HFE knock-out mice (−/−) and three months old female C57BL6/J wild type mice (+/+) were used in this study (Herrmann et al., Mol. Med, 2004. 82 (1): p1-3). HFE−/− mice (n=8) were treated on Day 1 (1×) or on Day 1 and on Day 22 (2×) subcutaneously with either PBS (PBS) or 3 mg/kg TMPRSS6 siRNA conjugate (TMP) or 3 mg/kg non-targeting siRNA conjugate (Luc). In addition, cohort 7 to 10 received Deferiprone supplied in drinking water at a concentration of 0.5 mg/ml. Cohorts 1 and 2 were terminated on Day 1 (Predose) all other cohorts on Day 43 (6 weeks after start of the treatment) to collect serum and tissue samples for analyses. Treatment with TMPRSS6 siRNAs enhances the reduction of tissue iron levels by iron chelator. 3 months old HFE−/− (rodent model for hereditary hemochromatosis and iron overload) or wild type mice were used for this study and treated as described in Example 46. Liver tissue samples were collected to assess liver iron concentrations before start of the treatment (predose) and at the end of the study at Day 43 (6 weeks after start of treatments). Liver tissue samples were dried and iron concentrations from dry weights were determined by acid extraction method. At the start of the study liver iron levels were already elevated in HFE−/− compared to wild type control mice (Predose). […]

## Cc1c(O)c(=O)ccn1C [Deferiprone]
  Liver iron content: little to no effect on the liver iron content
